The structures appear in SMILES notation. Values joined by “and” are separate entries in the source; they are usually repeats but may differ in a detail not shown here. Equal values may be shown once. A value given as a limit tells only on which side of the number the result lay.

Data set [1] in a line: Parallel artificial membrane permeability assay for the blood–brain barrier (PAMPA-BBB). Type of data set: in vitro ADME. As to conditions: for log Pe PAMPA-BBB: donor pH 7.4, acceptor pH 7.4, 37 °C, 4 h, n = 9, Pe in cm/s, n.d. = not detected in the acceptor phase. The protocol: (§1) The test solutions were prepared with dimethyl sulfoxide (DMSO) at the concentration of 10.0 mM. These were diluted with phosphate buffers (pH = 7.4 for the PAMPA-BBB and pH = 6.8 for the PAMPA-GI) to obtain the donor solutions (297.0 μL buffer + 3.0 μL DMSO solution) and filtered through Phenex-RC 15 mm, 0.2 μm syringe filters (Gen-Lab Ltd., Budapest, Hungary). A parallel artificial membrane permeability assay (PAMPA) system was used to determine the effective permeability (Pe) for the compounds of interest. Each well of the top plate (96-well polycarbonate-based filter donor plates (Multiscreen™-IP, MAIPN4510, pore size 0.45 μm; Merck, Darmstadt, Germany) was coated with 5 μL of porcine polar brain lipid extract (PBLE) solution (16.0 mg PBLE + 8.0 mg cholesterol dissolved in 600.0 μL n-dodecane) for the PAMPA-BBB and with 5 μL of the mixture of 8.0 mg phosphatidylcholine + 4.0 mg cholesterol dissolved in 300.0 μL n-dodecane for PAMPA-GI. Thereafter, 150.0 μL of the filtrate was placed on the membrane. The bottom plate (96-well PTFE acceptor plates (MultiScreen Acceptor plate, MSSACCEPTOR; Millipore, Burlington, MA, USA)), was filled with a 300.0 μL buffer solution (0.01 M PBS buffer, pH = 7.4). The donor and acceptor plates were fit, and then the sandwich system was incubated at 37 °C for 4 h in a Stat-Fax 2200. After the incubation the PAMPA plates were separated and the compound concentrations in the donor (CD(t)) and acceptor (CA(t)) solutions, as well as in the donor solution at the zero time point (CD(0)) were determined by UHPLC-DAD. The effective permeability and the membrane retention in the PAMPA-BBB (1) and the PAMPA GI (2) experiments were calculated by the following equations [12]:(1) Pe=−2.303/A(t−τSS)·(VA·VD/VA+VD)·lg[1−(VA+VD/(1−MR)·VD)×(CA(t)/CD(0))] (2) Pe=−2.303/A(t−τSS))·(1/1+ra)·lg[−ra+(1+ra/1−MR)×(CD(t)/CD(0))] where Pe is the effective permeability coefficient (cm/s), A is the filter area (0.24 cm^2), VD and VA are the volumes in the donor (0.15 cm^3) and acceptor phases (0.30 cm^3), t is the incubation time (s), τSS is the time (s) to reach steady-state (240 s), CD(t) is the concentration (mol/cm^3) of the compound in the donor phase at time t, CD(0) is the concentration (mol/cm^3) of the compound in the donor phase at time 0, MR is the estimated membrane retention factor (the estimated mole fraction of solute lost to the membrane) and ra is the sink asymmetry ratio (gradient-pH-induced), defined as (3) ra=VD/VA×Pe(A→D)/Pe(D→A) (4) MR=1−CD(t)/CD(0)−VA/VDCA(t)/CD(0)
(§2) All experiments were performed in triplicates on three consecutive days (n = 9), caffeine standard was used as positive, while rutin as negative control. ClogP values were calculated by ChemAxon Marvin 22.3.

A short description of data set [2]: Determination of aqueous stability (UHPLC-DAD, 4 h at 37 °C). Format: physicochemical. As to conditions: for Aqueous stability pH = 1.2: compound concentration after 4 h of incubation compared to the initial value: pH 1.2 simulated gastric fluid, n = 3; for Aqueous stability pH = 6.8: compound concentration after 4 h of incubation compared to the initial value: pH 6.8 simulated intestinal fluid; for Aqueous stability pH = 6.8: compound concentration after 4 h of incubation compared to the initial value / Aqueous stability pH = 7.4: compound concentration after 4 h of incubation compared to the initial value: n = 3, * p < 0.05 vs initial; for Aqueous stability pH = 7.4: compound concentration after 4 h of incubation compared to the initial value: pH 7.4 PBS; for Significance of decrease in compound concentration (in words): paired-sample t-test, p < 0.05, pH 1.2, 6.8, 7.4; for Aqueous stability at all three investigated pH values (in words): pH 1.2, 6.8 and 7.4, no notable change in peak areas, no degradation products detected. The procedure:
The aqueous solutions and buffers were prepared as follows: pH = 1.2, 1.0 g NaCl and 3.5 mL HCl dissolved in distilled water to achieve the final volume of 500.0 mL; pH = 6.8, 20.2 g Na2HPO4·7H2O and 3.4 g NaH2PO4·H2O dissolved in distilled water to achieve the final volume of 1000.0 mL, pH adjustment with 0.5 M NaOH or 0.5 M HCl; pH = 7.4, one PBS tablet (phosphate buffered saline, pH 7.4; Sigma Aldrich, St. Louis, MO, USA) dissolved in 200.0 mL of distilled water.
With the aforementioned buffers, 10 mM dimethyl sulfoxide stock solutions of the isolated compounds were diluted 100-fold. […] For degradable compounds, the above-mentioned validated UHPLC-DAD method was used to examine the change in compound concentration. All experiments were performed in triplicates (n = 3).

Data set [3] is described as follows: Parallel artificial membrane permeability assay for the gastrointestinal tract (PAMPA-GI). As to conditions: for log Pe PAMPA-GI: donor pH 6.8, acceptor pH 7.4, 37 °C, 4 h, n = 9, Pe in cm/s, n.d. = not detected in the acceptor phase; for Papp at 4 h, 100 µM: PAMPA, read-out: log Pe PAMPA-GI (converted). Format: in vitro ADME. The protocol:
as §1, §2
In general terms: In PAMPA a lipid-coated filter parts donor from acceptor wells.

`O=C(CCc1ccc(O)c(O)c1)C[C@H](CCc1ccc(O)c(O)c1)O[C@@H]1OC[C@@H](O)[C@H](O)[C@H]1O` [oregonin (2), oregonin]: the “log Pe PAMPA-BBB” value in data set [1] was “not detected in the acceptor phase”. Further, in data set [2], the “Aqueous stability pH = 1.2: compound concentration after 4 h of incubation compared to the initial value” is 98.67 ± 2.43%; the “Aqueous stability pH = 6.8: compound concentration after 4 h of incubation compared to the initial value” is recorded as 91.22 ± 3.01 * %; the “Aqueous stability pH = 7.4: compound concentration after 4 h of incubation compared to the initial value” is reported as 59.93 ± 2.85 * %; the “Significance of decrease in compound concentration (in words)” value (“Significance of decrease” for short) is “significant decrease both at pH 6.8 and 7.4”. In data set [2] (listed as 2), the “Aqueous stability pH = 7.4: compound concentration after 4 h of incubation compared to the initial value” came out at 59.93 ± 2.85%. Also, the “log Pe PAMPA-GI” value in data set [3] is “not detected in the acceptor phase”.
As to `O=C1CCc2ccc(O)c(c2)-c2cc(ccc2O)C[C@H](O)[C@H](O)[C@H]1O` [carpinontriol B (9), carpinontriol B], in data set [2], the “Aqueous stability at all three investigated pH values (in words)” value (shortened to “Aqueous stability … (in words)”) is recorded as “stable”, the “Aqueous stability pH = 1.2: compound concentration after 4 h of incubation compared to the initial value” was 102.75 ± 1.09%, the “Aqueous stability pH = 6.8: compound concentration after 4 h of incubation compared to the initial value” is 101.51 ± 1.75% and the “Aqueous stability pH = 7.4: compound concentration after 4 h of incubation compared to the initial value” came out at 103.28 ± 1.81%. Moreover, the Papp at 4 h, 100 µM in data set [3] was 3.24 ×10⁻⁶ cm/s.
As for `O=C(/C=C/CCc1ccc(O)c(O)c1)CCc1ccc(O)c(O)c1` [hirsutenone (3), hirsutenone], in data set [1], the “log Pe PAMPA-BBB” value was “not detected in the acceptor phase”. Further, in data set [2], the “Aqueous stability pH = 1.2: compound concentration after 4 h of incubation compared to the initial value” is 99.63 ± 0.37%, the “Aqueous stability pH = 7.4: compound concentration after 4 h of incubation compared to the initial value” is recorded as 83.80 ± 2.41 * % and the “Significance of decrease” value is “decreased significantly only at pH 7.4”. In data set [3], the “log Pe PAMPA-GI” value is “not detected in the acceptor phase”.
As to `C[C@@H]1O[C@@H](Oc2c(-c3ccc(O)c(O)c3)oc3cc(O)cc(O)c3c2=O)[C@H](O)[C@H](O)[C@H]1O` [quercitrin (10), quercitrin], the “log Pe PAMPA-BBB” value in data set [1] is given as “not detected in the acceptor phase”. Moreover, in data set [2], the “Aqueous stability … (in words)” value is reported as “stable”, the “Aqueous stability pH = 1.2: compound concentration after 4 h of incubation compared to the initial value” is on record as 100.91 ± 0.53%, the “Aqueous stability pH = 6.8: compound concentration after 4 h of incubation compared to the initial value” is 102.35 ± 1.85% and the “Aqueous stability pH = 7.4: compound concentration after 4 h of incubation compared to the initial value” came to 100.75 ± 0.96%. In data set [3], the “log Pe PAMPA-GI” value is “not detected in the acceptor phase”.
In the case of `COc1c2cc(c(OC)c1O)Oc1ccc(cc1)CCC(=O)C[C@H](O)/C=C\2` [giffonin F (8), giffonin F], in data set [1], the “log Pe PAMPA-BBB” value was “not detected in the acceptor phase”. Moreover, in data set [2], the “Aqueous stability … (in words)” value is “stable”, the “Aqueous stability pH = 1.2: compound concentration after 4 h of incubation compared to the initial value” is on record as 99.97 ± 1.01%, the “Aqueous stability pH = 6.8: compound concentration after 4 h of incubation compared to the initial value” is 102.68 ± 2.45% and the “Aqueous stability pH = 7.4: compound concentration after 4 h of incubation compared to the initial value” turned out to be 100.92 ± 2.02%. Also, the “log Pe PAMPA-GI” value in data set [3] was “not detected in the acceptor phase”.
Consider `O=C(/C=C/CCc1ccc(O)cc1)CCc1ccc(O)cc1` [platyphyllenone (5), platyphyllenone], for which, in data set [1] (PAMPA, pH 7.4, read-out: log Pe PAMPA-BBB (converted)), the Papp at 4 h, 100 µM is 5.75 ×10⁻⁶ cm/s. Moreover, in data set [1], the “log Pe PAMPA-BBB” value was above −6.0. For the same compound, in data set [2], the “Aqueous stability pH = 1.2: compound concentration after 4 h of incubation compared to the initial value” was 99.45 ± 1.05%; the “Aqueous stability pH = 6.8: compound concentration after 4 h of incubation compared to the initial value” is 94.98 ± 2.10% and 94.98 ± 2.10 * %; the “Aqueous stability pH = 7.4: compound concentration after 4 h of incubation compared to the initial value” is 90.40 ± 1.52% and 90.40 ± 1.52 * %; the “Significance of decrease” value is “significant decrease both at pH 6.8 and 7.4”. In data set [3], the Papp at 4 h, 100 µM is 12 ×10⁻⁶ cm/s and the “log Pe PAMPA-GI” value is on record as “greater than −5.0”.

(Values after article PMC9231376, “Membrane Permeability and Aqueous Stability Study of Linear and Cyclic Diarylheptanoids from Corylus maxima” (Pharmaceutics, 2022).)
